The source of these data is patent US12187746B2, “C26-linked rapamycin analogs as mTOR inhibitors” (Revolution Medicines, Inc., priority 2018, dated 2025).

The test system of one assay is P-P70S6K (T389). Nature of the assay: Cell based AlphaLISA assay, inhibition of P-P70S6K (T389) in MDA-MB-468 cells. To be noted: Homo sapiens, 4 h, 0.017-1,000 nM, two to four hours at 37° C., AlphaLisa SureFire Ultra, read-out: pIC50 for Inhibition of mTORC1 and mTORC2 Substrate Phosphorylation, p-P70S6K-(T389) (converted). The method in brief: (§1)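 mTORC1 and mTORC2 activity in cells tracked through AlphaLISA SureFire Ultra detection of the phosphoproteins after incubation and cell lysis; Alpha signal read in duplicate. IC50 from normalized concentration–response regression with control-based normalization.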
Background: In Alpha technology, singlet oxygen from a donor bead excites a nearby acceptor bead.

The test system of the next assay is P-4E-BP1 (T37/46). Nature of the assay: Cell based AlphaLISA assay, inhibition of P-4E-BP1 (T37/46) in MDA-MB-468 cells. To be noted: Homo sapiens, 4 h, 0.017-1,000 nM, two to four hours at 37° C., AlphaLisa SureFire Ultra, read-out: pIC50 for Inhibition of mTORC1 and mTORC2 Substrate Phosphorylation, p-4E-BP1-(T37/46) (converted). The method in brief: as §1
For another assay, the system named is P-Akt (S473). Nature of the assay: Cell based AlphaLISA assay, inhibition of P-Akt (S473) in MDA-MB-468 cells. To be noted: Homo sapiens, 4 h, 0.017-1,000 nM, two to four hours at 37° C., AlphaLisa SureFire Ultra, read-out: pIC50 for Inhibition of mTORC1 and mTORC2 Substrate Phosphorylation, p-AKT1/2/3-(S473) (converted). The method in brief: as §1

Molecules are shown by their SMILES. Some results are limits rather than exact numbers.

Regarding `CO[C@H]1C[C@@H]2CC[C@@H](C)[C@@](O)(O2)C(=O)C(=O)N2CCCC[C@H]2C(=O)O[C@H]([C@H](C)C[C@@H]2CC[C@@H](O)[C@H](OC)C2)C[C@@H](O)[C@H](C)/C=C(\C)[C@@H](O)[C@@H](OC)C(=NOCC(=O)NCc2cnc(N3CCN(C(=O)CCOCCN4CCN(C(=O)CN(C)CC(=O)N5CCc6cc(Cn7nc(-c8ccc9oc(N)nc9c8)c8c(N)ncnc87)ccc6C5)CC4)CC3)nc2)[C@H](C)C[C@H](C)/C=C/C=C/C=C/1C` [Example 36], the IC50 in the assay on P-P70S6K (T389) is 1 to 10 nM; with P-4E-BP1 (T37/46), 31.6 to 1000 nM; in the assay on P-Akt (S473), > 1000 nM.

On to `CO[C@H]1C[C@@H]2CC[C@@H](C)[C@@](O)(O2)C(=O)C(=O)N2CCCC[C@H]2C(=O)O[C@H]([C@H](C)C[C@@H]2CC[C@@H](O)[C@H](OC)C2)C[C@@H](O)[C@H](C)/C=C(\C)[C@@H](O)[C@@H](OC)C(=NOCC(=O)NCc2cnc(N3CCN(C(=O)CCCN4CCN(c5ncc(C(=O)NCCCCn6nc(-c7ccc8oc(N)nc8c7)c7c(N)ncnc76)cn5)CC4)CC3)nc2)[C@H](C)C[C@H](C)/C=C/C=C/C=C/1C` [Example 37], for which the IC50 in the assay on P-P70S6K (T389) is < 1 nM; in the assay with P-4E-BP1 (T37/46), 3.16 to 31.6 nM; with P-Akt (S473), 3.16 to 31.6 nM.

Take `CO[C@H]1C[C@@H]2CC[C@@H](C)[C@@](O)(O2)C(=O)C(=O)N2CCCC[C@H]2C(=O)O[C@H]([C@H](C)C[C@@H]2CC[C@@H](O)[C@H](OC)C2)C[C@@H](O)[C@H](C)/C=C(\C)[C@@H](O)[C@@H](OC)C(=NOCC(=O)NCc2cnc(N3CCN(C(=O)CCOCCN4CCN(c5ncc(C(=O)NCCOCCC(=O)N6CCc7cc(Cn8nc(-c9ccc%10oc(N)nc%10c9)c9c(N)ncnc98)ccc7C6)cn5)CC4)CC3)nc2)[C@H](C)C[C@H](C)/C=C/C=C/C=C/1C` [Example 39]: the IC50 with P-P70S6K (T389) was 1 to 10 nM; in the assay with P-4E-BP1 (T37/46), 3.16 to 31.6 nM; in the assay on P-Akt (S473), > 1000 nM.

As for `CO[C@H]1C[C@@H]2CC[C@@H](C)[C@@](O)(O2)C(=O)C(=O)N2CCCC[C@H]2C(=O)O[C@H]([C@H](C)C[C@@H]2CC[C@@H](O)[C@H](OC)C2)C[C@@H](O)[C@H](C)/C=C(\C)[C@@H](O)[C@@H](OC)C(=NOCC(=O)NCc2cnc(N3CCN(C(=O)CCOCCN4CCN(CCOCCC(=O)N5CCc6cc(Cn7nc(-c8ccc9oc(N)nc9c8)c8c(N)ncnc87)ccc6C5)CC4)CC3)nc2)[C@H](C)C[C@H](C)/C=C/C=C/C=C/1C` [Example 40], the IC50 with P-P70S6K (T389) is 1 to 10 nM; in the assay with P-4E-BP1 (T37/46) it was 3.16 to 31.6 nM; in the assay on P-Akt (S473), > 1000 nM.

`CO[C@H]1C[C@@H]2CC[C@@H](C)[C@@](O)(O2)C(=O)C(=O)N2CCCC[C@H]2C(=O)O[C@H]([C@H](C)C[C@@H]2CC[C@@H](O)[C@H](OC)C2)C[C@@H](O)[C@H](C)/C=C(\C)[C@@H](O)[C@@H](OC)C(=NOCC(=O)NCCOCCC(=O)NCc2cnc(N3CCN(C(=O)CCOCCN4CCN(c5ncc(C(=O)NCCCCn6nc(-c7cnc8[nH]ccc8c7)c7c(N)ncnc76)cn5)CC4)CC3)nc2)[C@H](C)C[C@H](C)/C=C/C=C/C=C/1C` [Example 42]: the results for the IC50 in the assay on P-P70S6K (T389), in the assay on P-4E-BP1 (T37/46) and in the assay on P-Akt (S473) were 1 to 10 nM, 3.16 to 31.6 nM and > 1000 nM, respectively.

In the case of `CO[C@H]1C[C@@H]2CC[C@@H](C)[C@@](O)(O2)C(=O)C(=O)N2CCCC[C@H]2C(=O)O[C@H]([C@H](C)C[C@@H]2CC[C@@H](O)[C@H](OC)C2)C[C@@H](O)[C@H](C)/C=C(\C)[C@@H](O)[C@@H](OC)C(=NOCC(=O)NCCOCCC(=O)NCc2cnc(N3CCN(C(=O)CCOCCN4CCN(c5ncc(C(=O)NCCCCn6nc(-c7ccc8oc(N)nc8c7)c7c(N)ncnc76)cn5)CC4)CC3)nc2)[C@H](C)C[C@H](C)/C=C/C=C/C=C/1C` [Example 43], the IC50 is < 1 nM in the assay on P-P70S6K (T389), 3.16 to 31.6 nM with P-4E-BP1 (T37/46) and 31.6 to 1000 nM in the assay with P-Akt (S473).
